Test results published in patent US20090246292A1, “ANTIMICROBIAL FORMULATIONS COMPRISING A QUINONE AND A COPPER SALT” (priority 2006, published 2009).

Tests used:
[1] = test system: P. acnes NCTC 737; experiment: Disc diffusion assay (DDA), also supplemented; conditions: for DDA + salt & lipid: Example 8, single compound, salt and 1% (v/v) triolein;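 for all read-outs here: paper disc carrying compound placed on inoculated Wilkins-Chalgren Anaerobe agar pH 6.0, with lipid or NaCl supplement where listed, anaerobic 37 °C for 72 h, inhibition zone diameter read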
Description: The propionibacteria were cultured and maintained on Wilkins-Chalgren Anaerobe Medium (agar and broth) at pH 6.0; all cultures were incubated anaerobically at 37° C. for 72 hours.
(d) Disc Diffusion Assay (DDA)
(§1) A sterile paper disc was impregnated with a sample of the test compound in a suitable solvent and 30 minutes allowed for the solvents to evaporate (where possible). The disc was then placed on an agar plate onto which the test micro-organism had been inoculated. The plate was then incubated under the conditions described above, following which it was examined visually for signs of bacterial growth. […] The diameter of this zone of “inhibition” was measured using a ProtoCOL™ automated zone sizer (Synbiosis, Cambridge, UK).
(f) Supplemented Disc Diffusion Assays
For assays using Propionibacterium spp. strains the supplements used in the examples below were lipid (either Tween™ 80 or triolein, both at 1% v/v) and sodium chloride (100 mM).

[2] = test system: P. acnes NCTC 737; experiment: Synergy disc diffusion assay (SDDA), also supplemented; conditions: for SL SDDA area increase / SL SDDA increase / SL SDDA with CSL / SL SDDA with CSPH: salt and lipid (1% (v/v) triolein); for SDDA area increase / SDDA increase: unsupplemented
[3] = test system: S. aureus ATCC 29213; experiment: Disc diffusion assay (DDA), also supplemented; conditions: Example 9; single compound; salt and serum
Description: The staphylococci were cultured and maintained on Mueller-Hinton Medium (agar and broth) at pH 7.2; cultures were incubated aerobically at 37° C. for 19-20 hours.
(d) Disc Diffusion Assay (DDA)
as §1
(f) Supplemented Disc Diffusion Assays
(§2) For assays using S. aureus ATCC 29213 the supplements used were sodium chloride (100 mM), lipid (Tween™ 80 at 1% v/v) and horse serum (5% v/v).

[4] = test system: S. aureus ATCC 29213; experiment: Synergy disc diffusion assay (SDDA), also supplemented; conditions: for SS SDDA area increase / SS SDDA increase / SS SDDA with CSL / SS SDDA with CSPH: salt and serum supplements; for SDDA area increase / SDDA increase: unsupplemented;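 for all read-outs here: disc diffusion on Mueller-Hinton agar at pH 7.2, aerobic incubation at 37 °C lasting 19-20 h, two compounds assessed jointly for combined antimicrobial effect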
Description: (e) Synergy Disc Diffusion Assay (SDDA)
This is a variation on the DDA method, in which two compounds are tested together for their combined antimicrobial activity.
Two test compounds A and B were placed on a single paper disc and the above described DDA procedure repeated.
(f) Supplemented Disc Diffusion Assays
as §2

SMILES | DDA + salt & lipid [1] | SL SDDA area increase ([2]; quinone + CSL) | SL SDDA increase ([2]; quinone + CSL) | SL SDDA with CSL ([2]; quinone + CSL) | SDDA area increase ([2]; quinone + CSL) | SDDA increase ([2]; quinone + CSL) | SL SDDA area increase ([2]; quinone + CSPH) | SL SDDA increase ([2]; quinone + CSPH) | SL SDDA with CSPH ([2]; quinone + CSPH) | SDDA area increase ([2]; quinone + CSPH) | SDDA increase ([2]; quinone + CSPH) | DDA [1] | SDDA with CSL [2] | SDDA with CSPH [2] | DDA + salt & serum [3] | SS SDDA area increase ([4]; quinone + CSL) | SS SDDA increase ([4]; quinone + CSL) | SS SDDA with CSL ([4]; quinone + CSL) | SDDA area increase ([4]; quinone + CSL) | SDDA increase ([4]; quinone + CSL) | further results
CC(C)(C)C1=CC(=O)C=CC1=O | 45.13 (±1.45) mm | 56.24% | 11.28 mm | 56.41 (±2.58) mm | 63.59% | 11.39 mm | 10.60% | 2.56 mm | 52.10 (±2.56) mm | 61.51% | 11.39 mm | – | – | – | – | – | – | – | – | – | –
O=C1C=CC(=O)C(Cl)=C1 [2-chloro-1,4-benzoquinone] | 24.31 (±0.81) mm | 31.58% | 6.26 mm | 48.82 (±0.47) mm | 26.16% | 5.03 mm | 3.75% | 0.92 mm | 50.46 (±2.15) mm | 26.42% | 5.23 mm | 22.15 (±0.53) mm | 45.85 (±0.31) mm | 47.28 (±1.39) mm | – | – | – | – | – | – | –
CCc1cc(O)ccc1O [2-ethyl-p-hydroquinone] | 33.74 (±1.69) mm | 31.58% | 6.26 mm | 48.82 (±0.47) mm | 33.02% | 6.26 mm | 11.07% | 2.67 mm | 52.21 (±0.18) mm | 44.00% | 8.41 mm | – | – | – | 25.26 (±1.29) mm | 41.05% | 4.74 mm | 30.00 (±2.47) mm | 151.18% | 14.23 mm | SS SDDA area increase ([4]; quinone + CSPH): 68.40%; SS SDDA increase ([4]; quinone + CSPH): 7.52 mm; SS SDDA with CSPH ([4]; quinone + CSPH): 32.78 (±0.31) mm; SDDA area increase ([4]; quinone + CSPH): 157.87%; SDDA increase ([4]; quinone + CSPH): 14.74 mm
CC1=CC(=O)C=CC1=O [2-methyl-p-benzoquinone] | 35.18 (±1.24) mm | 37.19% | 7.29 mm | 49.85 (±3.20) mm | 47.88% | 8.82 mm | 18.59% | 4.41 mm | 53.95 (±1.16) mm | 38.80% | 7.49 mm | 33.74 (±1.52) mm | 49.64 (±0.99) mm | 49.54 (±0.81) mm | – | – | – | – | – | – | –
Cc1cc(O)ccc1O [2-methyl-p-hydroquinone] | 35.18 (±4.06) mm | 35.49% | 6.98 mm | 49.54 (±0.81) mm | 24.46% | 4.72 mm | 17.67% | 4.20 mm | 53.74 (±1.75) mm | 24.24% | 4.82 mm | – | – | – | 26.91 (±0.00) mm | 90.18% | 10.20 mm | 37.11 (±1.11) mm | 112.09% | 11.76 mm | SS SDDA area increase ([4]; quinone + CSPH): 74.72%; SS SDDA increase ([4]; quinone + CSPH): 8.66 mm; SS SDDA with CSPH ([4]; quinone + CSPH): 35.57 (±0.62) mm; SDDA area increase ([4]; quinone + CSPH): 140.93%; SDDA increase ([4]; quinone + CSPH): 14.23 mm
